The values below come from patent US9897592B2, “Methods for identifying arthropod repellents and attractants, and compounds and compositions identified by such methods” (The Regents of the University of California, priority 2013, dated 2018).

Where a name gives a salt, the structure may show the parent alone.

This experiment has as its system cpA neuron. Description: Single-sensillum recording: activation of cpA neuron by odorants. In kind it is cell-based, Aedes aegypti. The conditions noted are these: for Activation (spikes s^−1): A. aegypti cpA, 0.5-s pulses, odorants 10^−2 in paraffin oil or water, solvent response subtracted; for Activation (spikes s−1): cpA neuron, 20 compounds from the top 200 SVM ligand predictions, negative values = inhibition, N = 4. The procedure: FIG. 3b depicts representative traces and mean responses of the A. aegypti cpA neuron to 0.5-s pulses of 138 predicted compounds screened using single-sensillum recordings, in which odorants were diluted to 10^−2 in paraffin oil or water, and responses to solvent have been subtracted, n=2-6, and error bars are s.d.
FIG. 5f is a bar graph illustrating the mean responses of the A. aegypti cpA neuron to 0.5-s pulses of 22 newly predicted compounds screened as in FIG. 3b, where salmon bars correspond to odorants found in human odor, odorants were diluted to 10^−2 in paraffin oil or water, and responses to solvent have been subtracted, and n=2-5.
Adult female A. aegypti (Linnaeus 1762) (Rockefeller strain) A. gambiae sensu stricto Giles 1902 (G3 strain), or C. quinquefasciatus Say 1823 were tested 3-12 days post-emergence with single-sensillum extracellular recordings. Chemicals were obtained from Sigma-Aldrich at the highest purity (typically >99%) and were dissolved in paraffin oil or water. […] Response to clean beads was subtracted from the results reported. Only sensilla with cpA activity of <20 spikes s^−1 to negative control were considered for analysis.
CpA-off and sham treated mosquitoes were pre-treated for 3 min in an upended 1 L glass dish in which 100 μl of fresh butyryl chloride (1%) or paraffin oil was allowed to vaporize for 10-20 min. The odor delivery system for different screens is shown in FIG. 7b; solvent responses during the same recording session were subtracted. Inhibition screen was tested. For the ultra-prolonged activator the 3-s stimulus was delivered from a 10 ml disposable pipette using a CS-55 stimulus controller (Syntech), CO2 was delivered, and responses to subsequent odor stimuli were calculated by subtracting baseline activity 1 s prior to each stimulus. When responses to repeated pulses of cyclopentanone and CO2 were compared, baseline activity between seconds 5 and 6 following each stimulus was subtracted. Spike counting was done manually or with Igor Pro6.2 (Wavemetrics) with the Neuromatic v2.00 macro (by Jason Rothman), and peak-to-peak spike amplitudes for FIG. 8 were analysed in Clampfit 10.3 (Molecular Devices).
From the large list of cpA receptor ligands predicted from Example 3 above, 138 compounds were selected based on desirable criteria for application such as smell, presence in natural sources, human safety profile, and cost to procure. These compounds were tested individually using single-sensillum electrophysiology on the cp sensillum of female A. aegypti, according to the procedure described in Example 1 above.

`CC/C=C\CCO` [(Z)-hex-3-en-1-ol]: the “Activation (spikes s^−1)” value was found to be 2.5 spikes s^−1.
On the same count and under the same terms, with `CCCC(=O)c1ccccc1` [1-phenylbutan-1-one] the figure was 1.5 spikes s^−1; with `CC(=O)C(C)O` (stereo not shown) [3-hydroxybutan-2-one], 0.5 spikes s^−1; with `CC(C)CC(C)O` (stereo not shown) [4-methylpentan-2-ol], 24.0 spikes s^−1.
Same read-out and setting: with `Cc1cccc(O)c1` [3-methylphenol] the figure was 44.0 spikes s^−1.
The same measure, in the same setting: with `O=C1CCCN1` [pyrrolidin-2-one] the figure was 0.0 spikes s^−1; with `c1cnc2cccnc2c1` [1,5-naphthyridine], 1.5 spikes s^−1; with `CC1CC(=O)C(=O)C1C` (stereo not shown) [3,4-dimethylcyclopentane-1,2-dione], 1.5 spikes s^−1.
On to `O=COCc1ccccc1` [benzyl formate], for which the “Activation (spikes s^−1)” value is 8.0 spikes s^−1.
On the same count and under the same terms, with `C=C(C)C(=C)C` [2,3-dimethylbuta-1,3-diene] the figure was 10.0 spikes s^−1; with `Cc1cscn1` [4-methyl-1,3-thiazole], 111.8 spikes s^−1.
As for `CC(C)CC=O` [3-methylbutanal], the “Activation (spikes s^−1)” value came to 60.2 spikes s^−1.
In the case of `CCC(C)CC(=O)O` (stereo not shown) [3-methylpentanoic acid], the “Activation (spikes s^−1)” value is recorded as 3.7 spikes s^−1.
With `CCC(C)O` (stereo not shown) [butan-2-ol], the “Activation (spikes s−1)” value is listed as 63.8 spikes s−1.
Consider `C=Cc1scnc1C` [5-ethenyl-4-methyl-1,3-thiazole], for which the “Activation (spikes s^−1)” value worked out at 50.5 spikes s^−1.
As for `OC1CCCC1` [cyclopentanol], the “Activation (spikes s−1)” value is reported as 49.8 spikes s−1.
As to `CCCCCc1ccccn1` [2-pentylpyridine], the “Activation (spikes s^−1)” value is given as −6.5 spikes s^−1.
On to `CC(C)CC(=O)OCCc1ccccc1` [2-phenylethyl 3-methylbutanoate], for which the “Activation (spikes s^−1)” value was 4.5 spikes s^−1.
The same measure, in the same setting: in the case of `C/C=C(\C)C(=O)O` [(E)-2-methylbut-2-enoic acid] it was 2.5 spikes s^−1; in that of `NCCC(=O)O` [3-aminopropanoic acid], 8.0 spikes s^−1.
Take `CC(C)OC=O` [propan-2-yl formate]: the “Activation (spikes s−1)” value was 63.8 spikes s−1.
On to `C/C=C/C(=O)O` [(E)-but-2-enoic acid], for which the “Activation (spikes s^−1)” value is given as −1.5 spikes s^−1.
For `CCC(N)C(=O)O` (stereo not shown) [2-aminobutanoic acid], the “Activation (spikes s^−1)” value is recorded as −3.0 spikes s^−1.
Still for that read-out and setting: in the case of `CCC(C)c1nccnc1OC` (stereo not shown) [2-butan-2-yl-3-methoxypyrazine] it was −10.5 spikes s^−1; in that of `COC(C)=O` [methyl acetate], −50.5 spikes s^−1.
`CC(C)OC(=O)c1ccccc1` [propan-2-yl benzoate]: the “Activation (spikes s^−1)” value stood at 6.0 spikes s^−1.
As to `CCc1nccnc1OC` [2-ethyl-3-methoxypyrazine], the “Activation (spikes s^−1)” value is −17.5 spikes s^−1.
Same read-out and setting: with `Cc1ccccc1C=O` [2-methylbenzaldehyde] the figure was 19.0 spikes s^−1.
Still for that read-out and setting: with `c1ccnnc1` [pyridazine] the figure was 2.5 spikes s^−1; with `CCCCCO` [pentan-1-ol], 50.5 spikes s^−1; with `CC(=O)CC(C)(C)O` [4-hydroxy-4-methylpentan-2-one], 2.0 spikes s^−1.
On the same count and under the same terms, in the case of `Cc1cncc(C)c1` [3,5-dimethylpyridine] it was 7.5 spikes s^−1.
In the case of `Cc1ccc(C)s1` [2,5-dimethylthiophene], the “Activation (spikes s−1)” value is on record as 0.3 spikes s−1.
As for `CCC=C(C)C=O` [2-methylpent-2-enal], the “Activation (spikes s^−1)” value was found to be 36.5 spikes s^−1.
Still for that read-out and setting: in the case of `OCCCc1ccccc1` [3-phenylpropan-1-ol] it was −3.0 spikes s^−1; in that of `O=C1CNCCN1` [piperazin-2-one], −3.2 spikes s^−1; in that of `CCCS` [propane-1-thiol], 75.0 spikes s^−1.
In the case of `CCOCc1cnccn1` [2-(ethoxymethyl)pyrazine], the “Activation (spikes s^−1)” value is −8.0 spikes s^−1.
Take `CC(=O)c1ccncc1` [1-pyridin-4-ylethanone]: the “Activation (spikes s^−1)” value stood at 3.5 spikes s^−1.
With `CSc1ccoc1C` [2-methyl-3-methylsulfanylfuran], the “Activation (spikes s^−1)” value is reported as 12.0 spikes s^−1.
On to `CC(C)=CC1CC(C)CCO1` (stereo not shown) [4-methyl-2-(2-methylprop-1-enyl)oxane], for which the “Activation (spikes s^−1)” value came to 1.5 spikes s^−1.
As to `CC(C)O` [propan-2-ol], the “Activation (spikes s−1)” value is listed as 25.3 spikes s−1.
In the case of `CC(C)=CC=O` [3-methylbut-2-enal], the “Activation (spikes s^−1)” value is reported as 55.5 spikes s^−1.
The same measure, in the same setting: with `CC(C)=CCCC(C)CC(=O)O` (stereo not shown) [3,7-dimethyloct-6-enoic acid] the figure was 6.0 spikes s^−1; with `CCOC1CCCO1` (stereo not shown) [2-ethoxyoxolane], 6.5 spikes s^−1; with `CCCOC=O` [propyl formate], 58.0 spikes s^−1.
Still for that read-out and setting: in the case of `c1ccsc1` [Thiophene] it was 116.6 spikes s^−1.
Turning to `CCc1nccnc1CC` [2,3-diethylpyrazine], the “Activation (spikes s^−1)” value is on record as −15.5 spikes s^−1.
Same read-out and setting: in the case of `Cc1cc(O)cc(O)c1` [5-methylbenzene-1,3-diol] it was 0.5 spikes s^−1; in that of `CC/C=C/C=O` [(E)-pent-2-enal], −5.0 spikes s^−1.
For the compound `C=CCSC` [3-methylsulfanylprop-1-ene], the “Activation (spikes s−1)” value is recorded as 52.8 spikes s−1.
As for `CC(C)Cc1cccnc1` [3-(2-methylpropyl)pyridine], the “Activation (spikes s^−1)” value stood at 5.5 spikes s^−1.
Consider `CC1=C(O)C(=O)OC1C` (stereo not shown) [4-hydroxy-2,3-dimethyl-2H-furan-5-one], for which the “Activation (spikes s^−1)” value was found to be 9.0 spikes s^−1.
As to `CC1=CC(=O)CC1` [3-methylcyclopent-2-en-1-one], the “Activation (spikes s^−1)” value is on record as 31.0 spikes s^−1.
Still for that read-out and setting: with `CCC(=O)OC` [methyl propanoate] the figure was 75.0 spikes s^−1.
Still for that read-out and setting: in the case of `CC1(O)CCOC(=O)C1` (stereo not shown) [4-hydroxy-4-methyloxan-2-one] it was −1.0 spikes s^−1; in that of `CCCCCC/C=C\CO` [(Z)-non-2-en-1-ol], −1.5 spikes s^−1.
Turning to `CCC(=O)OCCc1ccccc1` [2-phenylethyl propanoate], the “Activation (spikes s^−1)” value is −1.5 spikes s^−1.
On the same count and under the same terms, in the case of `Cc1ccc2ncccc2c1` [6-methylquinoline] it was 9.5 spikes s^−1; in that of `C=C(C)C(=O)OC` [methyl 2-methylprop-2-enoate], 45.0 spikes s^−1; in that of `CC1CCC(=O)O1` (stereo not shown) [5-methyloxolan-2-one], 10.0 spikes s^−1.
For the compound `CC(N)C(=O)O` (stereo not shown) [2-aminopropanoic acid], the “Activation (spikes s^−1)” value was −1.5 spikes s^−1.
Same read-out and setting: with `CCC(C)C=O` (stereo not shown) [2-methylbutanal] the figure was 33.5 spikes s^−1; with `CCCC(=O)OC` [methyl butanoate], 44.5 spikes s^−1; with `CC(=O)CCC(=O)O` [4-oxopentanoic acid], 4.5 spikes s^−1.
The same measure, in the same setting: in the case of `CCCc1ccncc1` [4-propylpyridine] it was 34.0 spikes s^−1.
Same read-out and setting: in the case of `O=C(O)[C@@H]1CCCN1` [(2S)-pyrrolidine-2-carboxylic acid] it was 3.5 spikes s^−1.
Regarding `C=CC(CCCCC)OC(=O)CCC` (stereo not shown) [oct-1-en-3-yl butanoate], the “Activation (spikes s^−1)” value is recorded as 0.0 spikes s^−1.
The same measure, in the same setting: with `CCCOC(C)=O` [propyl acetate] the figure was 52.6 spikes s^−1.
Regarding `Cc1csc(C)n1` [2,4-dimethyl-1,3-thiazole], the “Activation (spikes s−1)” value was 39.0 spikes s−1.
Take `CC(C)CCO` [3-methylbutan-1-ol]: the “Activation (spikes s^−1)” value was 51.8 spikes s^−1.
`CC(C)COC=O` [2-methylpropyl formate]: the “Activation (spikes s^−1)” value was determined as 48.0 spikes s^−1.
On the same count and under the same terms, in the case of `CC(=O)CCc1ccccc1` [4-phenylbutan-2-one] it was 0.5 spikes s^−1; in that of `c1cnc2c(n1)CCCC2` [5,6,7,8-tetrahydroquinoxaline], −5.5 spikes s^−1; in that of `CC/C=C\CCCCCO` [(Z)-non-6-en-1-ol], 2.0 spikes s^−1.
For the compound `CCCC(O)CCC` [heptan-4-ol], the “Activation (spikes s^−1)” value was −3.0 spikes s^−1.
